Test results published in patent publication US20170112773A1, “PLASMA MEMBRANE VESICLES COMPRISING FUNCTIONAL TRANSMEMBRANE PROTEINS” (Board of Regents, the University of Texas System, priority 2015, published 2017).

What was measured:
[1] = system: recipient HeLa cells; experiment: Dye delivery study: CRO dye delivery to recipient cells, flow cytometry; format: cell-based; conditions: 300 μM carbenoxolone
Experimental: The media for the blocked condition was supplemented with 300 μM carbenoxolone, prepared from a 100 mM stock in water. […] Recipient cells for the blocked condition were incubated in PBS supplemented with 300 μM carbenoxolone. Calcein red-orange-loaded vesicles were formed using calcium-free GPMV buffer. […] This ratio was estimated based on hemocytometer counts of the number of vesicles and of the number of recipient cells in a 12 well dish. […] At least 7,500 cells were analyzed for each trial.

[2] = system: HeLa cells; conditions: 24 hours of exposure, literature; cited from earlier work
[3] = in vitro; conditions: human, MCF-7 cells
Experimental: To test Connectosomes in a second model cell line, the assay was repeated using recipient MCF-7 cells. […] First, a control study was conducted in which the viability of a confluent monolayer of MCF-7 cells was measured 48 hours after free doxorubicin was added directly to the cell media at increasing concentrations from 10 nM to 100 μM (FIG. 4J). Next, independent cell samples were exposed to increasing concentrations of Connectosomes, which were equivalent in terms of total doxorubicin content to free doxorubicin concentrations of 180 nM, 900 nM, and 4.5 μM.

[4] = in vitro; conditions: human, HeLa cells
Experimental: Recipient HeLa cells were plated in a 12 well plate at a density of 25,000 cells per well and a total media volume of 2 mL media per well. Seven hours before addition of the GPMVs, recipient cells received fresh media. Just before addition of the GPMVs, the recipient cells were rinsed once with 2 mL PBS and then incubated in 500 μL fresh PBS. Concentrated GPMVs were resuspended in fresh calcium-free GPMV buffer and counted using a hemocytometer. GPMVs were added to recipient cells at a ratio of approximately 1 GPMV per 2 recipient cells and incubated in the dark at 37° C. with 5% CO2 for 2 hours. […] After 24 hours, cell viability was analyzed using a trypan blue or 7-AAD permeability assay.
For the 7-AAD assay, the cells were trypsinized with 500 μL trypsin for 5 minutes at 37° C., 5% CO2. […] Five μL of 7-AAD was added to 45 μL of the resuspended cells, and analyzed using flow cytometry within three minutes of 7-AAD addition. At least 5,000 cells were analyzed for each trial. […] To determine the percentage of non-viable cells in each sample, a threshold was drawn on the flow cytometry fluorescence histograms at the minimum point between the population of cells excluding the dye and the population of cells including the dye. The percentage of cells with fluorescence above these thresholds were considered non-viable. […]

[5] = in vitro; conditions: human, HeLa cells; remark: listed apart in the source
Experimental: Recipient HeLa cells were plated in a 12 well plate at a density of 25,000 cells per well and a total media volume of 2 mL media per well. Seven hours before addition of the GPMVs, recipient cells received fresh media. Just before addition of the GPMVs, the recipient cells were rinsed once with 2 mL PBS and then incubated in 500 μL fresh PBS. Concentrated GPMVs were resuspended in fresh calcium-free GPMV buffer and counted using a hemocytometer. GPMVs were added to recipient cells at a ratio of approximately 1 GPMV per 2 recipient cells and incubated in the dark at 37° C. with 5% CO2 for 2 hours. After incubation, the recipient cells were rinsed with 2 mL media and then incubated in 2 mL fresh media at 37° C. with 5% CO2. After 24 hours, cell viability was analyzed using a trypan blue or 7-AAD permeability assay.
For the trypan blue assay, the cells were trypsinized with 500 μL trypsin for 5 minutes at 37° C., 5% CO2. […] At least 90 cells were counted for each trial using a hemocytometer. […]
The relationship between the concentration of doxorubicin added via solution and cell viability was determined by incubating recipient HeLa cells in the specified doxorubicin concentration diluted in media from a 10 mM stock in DMSO for 24 hours. Cell viability was measured using both viability assays as described above.

[6] = system: CEM-SS lymphocytes; conditions: peptide concentration 0.1-1 mM, CEM-SS lymphocytes in culture; cited from earlier work

With `CC1(C)[C@@H](OC(=O)CCC(=O)O)CC[C@]2(C)[C@H]3C(=O)C=C4[C@@H]5C[C@@](C)(C(=O)O)CC[C@]5(C)CC[C@@]4(C)[C@]3(C)CC[C@@H]12` [carbenoxolone] the “Effect of gap junction inhibitor on CRO dye delivery by Connectosomes” value [1] was “significantly decreased the average recipient cell fluorescence”.
In the case of `COc1cccc2c1C(=O)c1c(O)c3c(c(O)c1C2=O)C[C@@](O)(C(=O)CO)C[C@@H]3O[C@H]1C[C@H](N)[C@H](O)[C@H](C)O1` [free doxorubicin, doxorubicin], the “Cytotoxic dose of doxorubicin” value [2] is listed as “approximately 10 μM”, the cytotoxicity at 48 h, 100 µM [3] is listed as 44% and the cytotoxicity at 24 h, 10 µM [4] is listed as 45%. The cytotoxicity at 24 h, 10 µM [5] was 44% and the cytotoxicity at 24 h, 100 µM [5] was 87%.
In the case of “SEQ ID NO:1: fusogenic peptide from influenza virus hemagglutinin HA-2”, the “Increase of anti-HIV potency of antisense oligonucleotides” value [6] is listed as “up to 10 fold”.
